Measurements reported in paper PMC4098866 (Bioscience Reports, 2012).
Several values for one entry are separate records, joined by “and”; a condition that tells them apart may be missing. Equal values may be shown once. Read-outs that look alike come from different tables or passages of the source. One block for each compound: values may come before it.

Tests used:
RPSA-(2–220) [1] = target: T1, RPSA-(2–220) (Mus musculus, UniProt P14206); assay: Competition ELISA, KD between laminin and RPSA derivative; type: binding, murine; settings: read-out: KD(Laminin), 25°C, buffer C, equilibrium in solution
RPSA-(2–295) [2] = target: T2, RPSA-(2–295) (Mus musculus, UniProt P14206); assay: as above; type: binding, murine
[3] = target: RPSA 161–180 (synthetic peptide G); settings: SPRadio-L, 4 °C; cited from earlier work
RPSA-(2–209) [4] = target: T3, RPSA-(2–209) (Mus musculus, UniProt P14206); assay: Competition ELISA, KD between laminin and RPSA derivative; type: binding, murine; settings: read-out: KD(Laminin), 25°C, buffer C, equilibrium in solution
67LR = settings: cell membrane, denatured, SPRadio-L, cited from earlier work
RPSA-(210–295) [5] = target: T4, RPSA-(210–295) (Mus musculus, UniProt P14206); assay: Competition ELISA, KD between laminin and RPSA derivative; type: binding, murine; settings: read-out: KD(Laminin), 25°C, buffer C, equilibrium in solution
RPSA-(225–295) [6] = target: T5, RPSA-(225–295) (Mus musculus, UniProt P14206); assay: as above; type: binding, murine; settings: read-out: KD(Laminin), 25°C, buffer C, equilibrium in solution
RPSA 1–295 = settings: 1–295, E. coli, native, Ind. ELISA, 37 °C; cited from earlier work
N-domain of RPSA = N-domain of RPSA (Mus musculus, UniProt P14206); assay: Summary of ligand binding functions of RPSA domains; set-up: species or system murine; settings: read-out: KD (dissociation constants), N-domain; rounded value of the Abstract
RPSA 1–220 = settings: 1–220, E. coli, native, Ind. ELISA, 37 °C; cited from earlier work
C-domain of RPSA = C-domain of RPSA (Mus musculus, UniProt P14206); assay: Summary of ligand binding functions of RPSA domains; set-up: species or system murine; settings: read-out: KD (dissociation constants), C-domain; rounded value of the Abstract
[7] = tested on: 67LR form of RPSA, purified from human cancer cells; settings: 25°C, surface plasmon resonance; cited from earlier work
RPSA-(2–209) W195A = RPSA-(2–209) W195A (Mus musculus, UniProt P14206, W195A); assay: Fluorimetric titration of mutant RPSA-; type: binding, murine
RPSA-(2–220) [8] = target: T1, RPSA-(2–220); assay: Fluorimetric titration of RPSA derivative with EGCG; type: binding, murine; settings: read-out: KD(EGCG); 25°C, PBS, equilibrium in solution, spectrofluorimetry
RPSA-(2–209) [9] = target: T3, RPSA-(2–209); assay: as above; type: binding, murine
RPSA-(225–295) [10] = target: T5, RPSA-(225–295); assay: as above; type: binding, murine; settings: 25°C
RPSA-(2–209) W176A = RPSA-(2–209) W176A (Mus musculus, UniProt P14206, W176A); assay: Fluorimetric titration of mutant RPSA-; type: binding, murine
RPSA-(2–295) [11] = target: T2, RPSA-(2–295); assay: Fluorimetric titration of RPSA derivative with EGCG; type: binding, murine
RPSA-(210–295) [12] = target: T4, RPSA-(210–295); assay: as above; type: binding, murine; settings: 25°C
[13] = target: capture of laminin by immobilized RPSA-(2–220) (Mus musculus, UniProt P14206); type: binding, murine; settings: EC50 smaller than K1/2
RPSA-(210–295) [14] = target: T4, RPSA-(210–295); assay: Indirect ELISA, capture of heparin by immobilized RPSA derivative; type: binding, murine; settings: 25°C
[15] = target: interaction between RPSA-(225–295) and laminin (Mus musculus, UniProt P02468+P02469+P19137); assay: Competition ELISA, inhibition constant Ki of heparin; type: binding, murine; settings: read-out: constant of inhibition (Ki); 25°C, buffer C, laminin 5 μg/ml, immobilized RPSA-(225–295)
RPSA-(2–220) [16] = target: T1, RPSA-(2–220); assay: Indirect ELISA, capture of heparin by immobilized RPSA derivative; type: binding, murine; settings: 25°C, half-saturation, listed as Heparin
RPSA-(2–209) [17] = target: T3, RPSA-(2–209); assay: as above; type: binding, murine; settings: 25°C, half-saturation
RPSA-(225–295) [18] = target: T5, RPSA-(225–295); assay: as above; type: binding, murine; settings: 25°C
RPSA-(2–295) [19] = target: T2, RPSA-(2–295); assay: as above; type: binding, murine; settings: 25°C
[20] = read-out: KD(EGCG), 25°C, PBS, equilibrium in solution, spectrofluorimetry
[21] = uncorrected fluorescence, consistent with tryptophanamide control

Kd (RPSA-(2–220) [1]): 691 ± 98 nM
KD of laminin, full-length RPSA-(2–295) relative to N- or C-domain (RPSA-(2–295) [2]; higher for full-length): 2 fold
Kd (RPSA-(2–295) [2]; read-out: KD(Laminin), 25°C, buffer C, equilibrium in solution, competition ELISA): 666 ± 33 nM
Kd (RPSA-(2–209) [4]): 273 ± 37 nM
Kd (RPSA-(210–295) [5]): 374 ± 54 nM
Kd (RPSA-(225–295) [6]): 344 ± 50 nM
Kd (N-domain of RPSA): 300 nM
Kd (C-domain of RPSA): 300 nM
Compound: laminin: laminin from mouse EHS (Engelbreth-Holm-Swarm) sarcoma, component of the extracellular matrix
Kd [3]: 52 nM
Kd (67LR; 4 °C): 2 nM
Kd (67LR; 20 °C): 2 nM
Kd (RPSA 1–295): 700 nM
Kd (RPSA 1–220): 1700 nM

decrease of free energy of interaction (ΔΔG) with EGCG (RPSA-(2–209) W195A; W195A vs parental RPSA-(2–209)): 0.4 ± 0.1 kcal/mol
Kd (RPSA-(2–209) W195A; read-out: KD (EGCG), 25°C, W195A mutant of RPSA-(2–209)): 196 ± 54 nM
Kd (RPSA-(2–220) [8]): 130 ± 37 nM
KD of EGCG with RPSA-(2–209) relative to literature KD with 67LR (RPSA-(2–209) [9]; higher than 39.9 nM of ref 46): 2.5 fold
Kd (RPSA-(2–209) [9]; [20]): 99 ± 7 nM
EGCG binding (in words) (RPSA-(225–295) [10]; spectrofluorimetry): did not bind
[EGCG]1/2 (concentration of half-absorption, Beer's law fitted to F) (RPSA-(225–295) [10]; [21]): 43 µM
decrease of free energy of interaction (ΔΔG) with EGCG (RPSA-(2–209) W176A; W176A vs parental RPSA-(2–209)): 0.4 ± 0.1 kcal/mol
Kd (RPSA-(2–209) W176A; read-out: KD (EGCG), 25°C, W176A mutant of RPSA-(2–209)): 186 ± 42 nM
Kd (N-domain of RPSA): 100 nM
KD of EGCG, full-length RPSA-(2–295) relative to N-domain (RPSA-(2–295) [11]; higher for full-length): 4 fold
Kd (RPSA-(2–295) [11]; [20]): 399 ± 101 nM
EGCG binding (in words) (RPSA-(210–295) [12]; spectrofluorimetry): did not bind
[EGCG]1/2 (concentration of half-absorption, Beer's law fitted to F) (RPSA-(210–295) [12]; [21]): 48 µM
Compound: O=C(O[C@@H]1Cc2c(O)cc(O)cc2O[C@@H]1c1cc(O)c(O)c(O)c1)c1cc(O)c(O)c(O)c1 [EGCG, (−)-epigallocatechin-3-gallate]
KD (EGCG and 67LR), ratio kd/ka [7]: 39.9 nM

EC50 relative to K1/2 of heparin for RPSA-(2–220) [13]: 130 fold
heparin binding (in words) (RPSA-(210–295) [14]): did not bind
K1/2(Heparin) (RPSA-(210–295) [14]; half-saturation): ≫2 μM
Ki [15]: 16.1 ± 0.7 nM
K1/2(Heparin) (RPSA-(2–220) [16]): 4.4 µM and 4.36 ± 0.28 µM
K1/2(Heparin) (RPSA-(2–209) [17]): 1.43 µM
K1/2(Heparin) (RPSA-(2–209) [17]; listed as Heparin): 1.43 ± 0.06 µM
heparin binding (in words) (RPSA-(225–295) [18]): did not bind
K1/2(Heparin) (RPSA-(225–295) [18]; half-saturation): ≫2 μM
heparin binding (in words) (RPSA-(2–295) [19]): did not bind
K1/2(Heparin) (RPSA-(2–295) [19]; half-saturation): ≫4 μM
Compound: heparin sodium salt
